Values quoted from earlier work in patent US20240082270A1 (priority 2021, published 2024).
Like-named read-outs stand apart in the source and are kept apart here.

Assays:
mouse bladder = conditions: induced by acetylcholine
[1] = animal studies
[2] = after 30 min ingestion
[3] = mouse, in vivo
protein kinase B = conditions: oxidative muscles
CB2R [4] = biological target: CB2R (Homo sapiens, UniProt P34972)
CB2R [5] = biological target: T1, CB2R (Mus musculus, UniProt P47936); conditions: oral, <5 mg-kg^−1
T1 construct: host or cells: wild-type mice, in vivo (oral dosing)

CB1R = CB1R (Homo sapiens, UniProt P21554)
SARS-CoV-2 [6] = conditions: lung epithelial cells
[7] = not given; remark: listed apart in the source
human CBR = conditions: rather non-selectively
mice = conditions: inhaled from ambient air
mast cells = conditions: higher concentration
melanoma = conditions: inhibition of E2F1 transcription
5-HT1A receptor = 5-HT1A receptor (Homo sapiens, UniProt P08908)
SARS-CoV-2 [8] = conditions: cohort of human patients previously taking CBD
[9] = after oral CBD in rats
[10] = not given; remark: listed apart in the source
[11] = Lennox-Gastaut and Dravet syndrome
[12] = pharmaceutical CBD, up to 1500 mg/day for 6 weeks
[13] = emulsified, small dispersed molecules
[14] = skin models
[15] = biological target: acylglycerol lipase, MAG1 (Homo sapiens, UniProt Q99685); conditions: reversible mechanism
[16] = dog; for adverse effects monitored by blood testing: 2 weeks of high twice daily dosing
[17] = system: methicillin resistant Staphylococcus aureus (MRSA)
[18] = mouse, in vivo; remark: listed apart in the source
[19] = rat, in vivo
SARS-CoV-2 spike protein [20] = biological target: T2, SARS-CoV-2 spike protein (Severe acute respiratory syndrome coronavirus 2, UniProt P0DTC2); conditions: allosteric as well as orthosteric ligands
[21] = system: pseudovirus expressing the SARS-CoV-2 spike protein
[22] = if stored properly
[23] = not given; remark: listed apart in the source
[24] = system: store-operated calcium (Ca2+) entry (SOCE); conditions: human T lymphocytes
SARS-CoV-2 spike protein [25] = biological target: T2, SARS-CoV-2 spike protein
[26] = biological target: SARS-CoV-2 main proteases (Severe acute respiratory syndrome coronavirus 2, UniProt P0DTD1)
[27] = chronic or single dose, versus control group without piperine
[28] = stress and anxiety

Chain of acylglycerol lipase, MAG1 (Q99685 whole entry): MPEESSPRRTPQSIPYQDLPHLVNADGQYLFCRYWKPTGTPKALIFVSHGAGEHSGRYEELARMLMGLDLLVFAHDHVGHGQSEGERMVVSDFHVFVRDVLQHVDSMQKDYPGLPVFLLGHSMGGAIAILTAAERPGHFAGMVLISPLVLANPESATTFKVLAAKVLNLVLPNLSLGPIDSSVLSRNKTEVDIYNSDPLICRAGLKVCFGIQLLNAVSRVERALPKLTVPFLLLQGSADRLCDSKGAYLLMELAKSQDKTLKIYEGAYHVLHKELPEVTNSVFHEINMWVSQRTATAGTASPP
Chain of CB1R (P21554 whole entry): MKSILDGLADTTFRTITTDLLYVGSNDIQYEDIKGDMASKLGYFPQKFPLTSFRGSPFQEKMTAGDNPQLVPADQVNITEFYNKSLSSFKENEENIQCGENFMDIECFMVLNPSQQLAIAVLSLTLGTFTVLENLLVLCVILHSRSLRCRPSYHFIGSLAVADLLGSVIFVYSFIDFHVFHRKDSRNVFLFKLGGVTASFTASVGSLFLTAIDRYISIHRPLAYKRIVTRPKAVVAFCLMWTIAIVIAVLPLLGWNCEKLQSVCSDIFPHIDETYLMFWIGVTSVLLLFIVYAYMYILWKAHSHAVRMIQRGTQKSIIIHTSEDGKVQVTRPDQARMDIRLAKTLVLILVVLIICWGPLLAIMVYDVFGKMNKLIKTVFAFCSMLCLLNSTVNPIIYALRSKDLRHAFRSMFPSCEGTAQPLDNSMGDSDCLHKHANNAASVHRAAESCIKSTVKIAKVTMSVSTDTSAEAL
Chain of 5-HT1A receptor (P08908 whole entry): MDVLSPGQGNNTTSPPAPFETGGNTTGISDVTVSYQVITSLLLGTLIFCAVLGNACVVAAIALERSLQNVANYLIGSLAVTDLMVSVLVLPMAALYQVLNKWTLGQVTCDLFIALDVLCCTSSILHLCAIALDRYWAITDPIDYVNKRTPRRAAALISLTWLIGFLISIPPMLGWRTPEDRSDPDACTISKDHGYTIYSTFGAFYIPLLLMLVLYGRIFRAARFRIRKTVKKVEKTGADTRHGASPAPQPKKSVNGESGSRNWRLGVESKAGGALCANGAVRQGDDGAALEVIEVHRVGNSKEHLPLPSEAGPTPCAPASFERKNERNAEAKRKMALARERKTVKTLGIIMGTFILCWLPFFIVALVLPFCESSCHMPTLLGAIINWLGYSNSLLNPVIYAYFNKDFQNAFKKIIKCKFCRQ
Chain of CB2R (Homo sapiens, UniProt P34972) (P34972 whole entry): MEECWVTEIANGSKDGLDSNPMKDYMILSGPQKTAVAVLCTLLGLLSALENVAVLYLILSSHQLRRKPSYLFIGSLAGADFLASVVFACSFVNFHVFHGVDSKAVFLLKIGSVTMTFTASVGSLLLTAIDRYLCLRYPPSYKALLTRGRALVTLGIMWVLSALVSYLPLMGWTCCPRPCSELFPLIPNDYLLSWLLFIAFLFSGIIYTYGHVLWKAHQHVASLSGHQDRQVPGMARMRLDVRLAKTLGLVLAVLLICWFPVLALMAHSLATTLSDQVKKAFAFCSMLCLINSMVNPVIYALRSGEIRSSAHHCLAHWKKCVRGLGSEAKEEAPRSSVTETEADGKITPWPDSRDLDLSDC
T1 sequence (P47936 whole entry): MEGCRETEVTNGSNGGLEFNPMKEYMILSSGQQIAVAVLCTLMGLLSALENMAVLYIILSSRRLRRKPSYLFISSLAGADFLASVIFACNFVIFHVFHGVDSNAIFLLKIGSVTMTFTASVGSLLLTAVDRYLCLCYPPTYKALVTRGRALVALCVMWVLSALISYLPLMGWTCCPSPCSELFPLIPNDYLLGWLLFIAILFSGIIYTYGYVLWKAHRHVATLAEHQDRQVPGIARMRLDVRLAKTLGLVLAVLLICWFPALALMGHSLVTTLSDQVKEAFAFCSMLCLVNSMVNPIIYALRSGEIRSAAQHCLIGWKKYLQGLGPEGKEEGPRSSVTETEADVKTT

C=C(C)[C@@H]1CCC(C)=C[C@H]1c1c(O)cc(CCC)cc1O [CBDV, Cannabidivarin]
ranked potency of detrusor contraction inhibition (mouse bladder): CBG=THCV>CBD>CBDV, but not CBC | time of peak brain concentrations [1]: 30 min

CC(C)=CCC/C(C)=C/CO [Geraniol]
bioavailability [2]: 92%

CCCc1cc(O)c(C/C=C(\C)CCC=C(C)C)c(O)c1 [CBGV, cannabigerovarin]
effect on hyperthermia-induced seizures [3]: Neither CBG nor CBGV affected thresholds | time of peak brain concentrations [1]: 30 min

C[C@@H](O)CC(=O)O [R-BHB]
inhibition of insulin-mediated phosphorylation of protein kinase B (protein kinase B): 50%

C=C1CC/C=C(\C)CC[C@@H]2[C@@H]1CC2(C)C [β-caryophyllene]
Ki (CB2R [4]; CB2R, full agonist): 155 nM | Tmax (one single oral administration): > 1 h | maximal onset (orally administered): 1 h | anti-inflammatory and analgesic effects (CB2R [5]): strong anti-inflammatory and analgesic effects in wild-type mice but not in CB2 receptor knockout mice

C=C[C@H](O)C#CC#CC/C=C\CCCCCCC [falcarinol]
Ki (CB1R; read-out: Ki value, CB1R): < 1000 nM

CCCCCc1cc(O)c(C/C=C(\C)CC/C=C(\C)CCC=C(C)C)c(O)c1 [Sesquicannabigerol]
affinity at CB2R higher than CBG (CB2R [4]; relative to CBG): 5 fold

C=C(C)[C@@H]1CCC(CO)=C[C@H]1c1c(O)cc(CCCCC)cc1O [7-OH-CBD]
SARS-CoV-2 replication (SARS-CoV-2 [6]): block SARS-CoV-2 replication

CCCCCc1cc(OC(=O)CCC(=O)O)c2c(c1)OC(C)(C)[C@@H]1CCC(C)=C[C@@H]21 [THC-HS, THC-hemisuccinate]
bioavailability ([7]; rectal): 70-80%

Oc1cc(O)c2c(c1)O[C@H](c1cc(O)c(O)c(O)c1)[C@H](O)C2 [(−)-epigallocatechin]
concentrations at which binding to human CBR was shown (human CBR): high μM concentrations

pinene
increase in motility (mice): 13.77%

C=C(C)[C@H]1CC=C(C)CC1 [limonene]
increase in motility (mice): 35.25%

CCCc1cc(O)c(C/C=C(\C)CCC=C(C)C)c(O)c1C(=O)O [CBGVA, cannabigerovarinic acid]
time of peak brain concentrations [1]: 15 min

CCCCC/C=C\C/C=C\C/C=C\C/C=C\CCCCOC(CO)CO [2-AGE, 2-arachidonyl glyceryl ether]
Ki (CB1R; read-out: Ki): 21.2 nM

C=CCc1ccc(O)c(OC)c1 [Eugenol]
concentration inducing apoptosis (HL-60 leukemia cells): 40 µmol/L | concentration leading to translocation of phospho-Ser15-p53 into mitochondria (mast cells): 700 µmol/L | concentration inhibiting melanoma growth (melanoma): 0.5 to 2.5 µmol⁻¹

C=C(C)[C@@H]1CCC(C)=C[C@H]1c1c(O)cc(CCCCC)cc1O [CBD, Cannabidiol]
concentration that synergistically enhances other 5-HT1A receptor agonists (5-HT1A receptor): 100 nM | concentrations at which the 5-HT1A receptor is activated (5-HT1A receptor): above 10 μM | SARS-CoV-2 replication (SARS-CoV-2 [6]): block SARS-CoV-2 replication | SARS-CoV-2 infection incidence (SARS-CoV-2 [8]): significantly lower | time of peak brain concentration [9]: 6 h | time of peak serum level [9]: 1 h | degradation, average values ([10]; effect of light, after 30 days): up to 15% | degradation, average values ([10]; stored at 37° C. for 30 days): up to 20% | reduction in seizures rate [11]: 50% | ranked potency of detrusor contraction inhibition (mouse bladder): CBG=THCV>CBD>CBDV, but not CBC | physical withdrawal symptoms [12]: No physical withdrawal symptoms were observed | sublingually absorbed [13]: up to 35%

CC[C@H](CC[C@@H](C)[C@H]1CC[C@H]2[C@@H]3CC=C4C[C@@H](O)CC[C@]4(C)[C@H]3CC[C@]12C)C(C)C [β-sitosterol]
reduction of chronic edema [14]: 41% | reduction of topical inflammation [14]: 65%

COC(=O)[C@]1(C)CC[C@]2(C)CC[C@]3(C)C4=CC=C5C(=CC(=O)C(O)=C5C)[C@]4(C)CC[C@@]3(C)[C@@H]2C1 [pristimerin]
IC50 [15]: 93 nM

CCCCCc1cc(O)c(C/C=C(\C)CCC=C(C)C)c(O)c1 [CBG, cannabigerol]
adverse effects monitored by blood testing [16]: no adverse effects | bioavailability ([7]; oral ingestion): 13-19% | bioavailability ([7]; sublingual administration): 13-56% | bioavailability ([7]; topical applications): 5-10% | ranked potency of detrusor contraction inhibition (mouse bladder): CBG=THCV>CBD>CBDV, but not CBC | acetylcholine-induced contractions (human bladder): reduce acetylcholine-induced contractions | effect on hyperthermia-induced seizures [3]: Neither CBG nor CBGV affected thresholds | efficacy in murine systemic infection model ([17]; MRSA): demonstrate in vivo efficacy | MRSA biofilm formation ([17]; mouse, in vivo): represses MRSA biofilm formation | rotarod performance [18]: significantly recovered their rotarod performance | appetite [19]: increased appetite | time of peak brain concentrations [1]: 120 min

C=C(C)[C@@H]1CCC(C)=C[C@H]1c1c(O)cc(CCCCC)c(C(=O)O)c1O [CBDA]
affinity for the spike protein (SARS-CoV-2 spike protein [20]): micromolar affinity | infection of human epithelial cells by pseudovirus [21]: prevented infection | entry of live SARS-CoV-2 into cells (live SARS-CoV-2): prevented entry

CCCc1cc(O)c2c(c1)OC(C)(C)[C@@H]1CCC(C)=C[C@@H]21 [THCV, tetrahydrocannabivarin]
ranked potency of detrusor contraction inhibition (mouse bladder): CBG=THCV>CBD>CBDV, but not CBC | effect on hyperthermia-induced seizures [3]: resulted in seizures at lower temperature thresholds | time of peak brain concentrations [1]: 30 min

C[C@H]1CC[C@@H](C(C)(C)O)CC2=C1CC[C@@H]2C [Guaiol]
Shelf Life [22]: ≥ 12 month(s)

C=C(C)[C@@H]1CCC(C)=C[C@H]1c1c(O)cc(CCC)c(C(=O)O)c1O [CBDVA]
time of peak brain concentrations [1]: 15 min

CC(C)=CCC[C@@H](C)[C@@H]1CC[C@]2(C)C3=C(CC[C@@]12C)[C@@]1(C)CC[C@H](O)C(C)(C)[C@@H]1CC3 [euphol]
IC50 ([15]; read-out: IC50): 315 nM

CCCCCc1cc(OC)c(C/C=C(\C)CCC=C(C)C)c(OC(=O)CCN2CCOCC2)c1 [HUM-234, Monomethoxycannabigeroyl-β-morpholinoproprionate]
obesity ([23]; mice fed a high-fat diet (HFD)): prevents obesity | TNF-α levels ([23]; mouse, in vivo): increases TNF-α at higher doses

O=C(O[C@@H]1Cc2c(O)cc(O)cc2O[C@@H]1c1cc(O)c(O)c(O)c1)c1cc(O)c(O)c(O)c1 [epigallocatechin β-gallate]
concentrations at which binding to human CBR was shown (human CBR): high μM concentrations

CCCCCc1cc(O)c(C/C=C(\C)CCC=C(C)C)c(O)c1C(=O)O [CBGA, cannabigerolic acid]
affinity for the spike protein (SARS-CoV-2 spike protein [20]): micromolar affinity | infection of human epithelial cells by pseudovirus [21]: prevented infection | entry of live SARS-CoV-2 into cells (live SARS-CoV-2): prevented entry | potency against SOCE (blocking CRAC currents) [24]: dose-dependent high potency | adverse effects monitored by blood testing [16]: no adverse effects | oral absorption ([16]; with or without food): orally absorbed significantly better than CBG | effect on hyperthermia-induced seizures [3]: more effective for seizures triggered by a febrile event than CBD | time of peak brain concentrations [1]: 45 min

Nc1ncnc2c1ncn2[C@@H]1O[C@H](CO)C[C@H]1O [Cordycepin, 3′-deoxyadenosine]
binding affinity (SARS-CoV-2 spike protein [25]): −145.3 | binding affinity [26]: −180.5

O=C(/C=C/C=C/c1ccc2c(c1)OCO2)N1CCCCC1 [piperine, Piperine]
increase in oral bioavailability of CBD [27]: ~2.5 fold

CCCCCc1cc(O)c2c(c1)OC(C)(CCC=C(C)C)C=C2 (centres unmarked) [CBC, cannabichromene]
potency relative to CBD [28]: up to 10 times

C=CC(C)(O)CCC=C(C)C (centres unmarked) [linalool]
reduction in motility (mice): 73%
